Data taken from patent publication US20240215573A1, “LIQUID AGROCHEMICAL COMPOSITION” (NOURYON CHEMICALS INTERNATIONAL B.V., priority 2020, published 2024).

How the values were obtained:
Type in all cases: in vivo
[1] = tested on: Anthracnose (Colletotrichum gloeosporioides); test: Greenhouse Test 2: Thiophenate methyl 70% WP with surfactants against anthracnose of grapes; conditions: Table C, summary in words
Description: (§1) In a second series of Examples, the following compounds are utilized to evaluate the efficacy of various fungicides in combination with various surfactants against fungi: • Fungicides: Hexaconazole 5% EC; Dimethomorph 50WP; Thiophenate methyl 70% WP; Azoxystrobin 23 SC • Surfactants: • Dioctyl sulfosuccinate • Alkoxylated glyceride with 20EO; • Alkoxylated glyceride with 50EO; • Siloxane Polyalkyleneoxide Copolymer • Fungi: • Powdery mildew (Erysiphenecator); • Downy mildew (Plasmopara viticola); • Anthracnose (Colletotrichum gloeosporioides); and • Early blight (Alternariasolani). The following test protocol is used:
(§2) There are 4 different fungicide formulations tested against 4 different pests (fungi). For each test there are untreated control (#1) and fungicide only w/o surfactant (#2). The same general protocol described above was used.
Percent Disease Index (PDI) for powdery mildew, downy mildew, anthracnose and early blight diseases were calculated by following formulae: […]
In case of grapes ratings on minimum ten leaves and a bunch were recorded on randomly selected canes. Ten such canes per plant were observed. The observations on 8 plants spread over four replication were recorded. Thus, the data presented on PDI is average of randomly selected 80 canes.

fungi = test: Greenhouse Test 2: overall comparison over the 4 fungicide formulations and 4 fungi; conditions: all 4 fungicide formulations; summary in words
Description: as §1, §2

Morning glory = test: Greenhouse Test 1: weed control by glufosinate with surfactants
Description: (§3) In a first series of Examples, the following compounds are utilized to evaluate the efficacy of various herbicides in combination with various surfactants against two types of weeds: • Herbicides: 2,4-D ester; dicamba; and glufosinate • Surfactants: Glycerol Monosoyate+10EO; • Glycerol Monosoyate+15EO; • Glycerol Monosoyate+20EO; • Glycerol Monosoyate+30EO; • Glycerol Monosoyate+50EO; • Soybean oil+20EO; • Reference 1—Polyoxyethylene (20) sorbitan monolaurate • Reference 2—Sodium lauryl ether sulfate The following test protocol is used:
(§4) Data is collected at end of each week for 4 weeks.

Alfalfa [2] = test: Greenhouse Test 1: weed control by 2,4-D with surfactants
Description: as §3, with “[…];” for “2,4-D ester;”
as §4

Alfalfa [3] = test: Greenhouse Test 1: weed control by dicamba with surfactants
Description: as §3, §4

[4] = Table 3A: Glufosinate 3 oz/a, surfactant 0.25%
[5] = Table 3B: Glufosinate 3 oz/a, surfactant 0.5%
[6] = Table 3C: Glufosinate 6 oz/a, surfactant 0.25%
[7] = Table 3D: Glufosinate 6 oz/a, surfactant 0.50%
[8] = Table 1A: 2,4-D DMA 91 g ae/A, surfactant 0.1%
[9] = Table 1B: 2,4-D DMA 91 g ae/A, surfactant 0.25%
[10] = Table 1C: 2,4-D DMA 91 g ae/A, surfactant 0.25% (so in the source)
[11] = Table 1D: 2,4-D DMA 91 g ae/A (so in the source), surfactant 0.25%
[12] = Table 2A: Dicamba 23 g ae/A, surfactant 0.1%
[13] = Table 2B: Dicamba 23 g ae/A, surfactant 0.25%
[14] = Table 2C: Dicamba 45 g ae/A, surfactant 0.1%
[15] = Table 2D: Dicamba 45 g ae/A, surfactant 0.25%

CCCCCCCCOC(=O)CC(C(=O)OCCCCCCCC)S(=O)(=O)O (centres unmarked) [dioctyl sulfosuccinate, Dioctyl sulfosuccinate]
efficacy compared with alkoxylated glyceride with 20EO [1]: lack of efficacy as compared to the alkoxylated glyceride with 20EO | overall disease control with fungicides (fungi): overall good control in all cases

CP(=O)(O)CCC(N)C(=O)O (centres unmarked) [Glufosinate]
% weed control, 7 day (Morning glory; [4]): 0.0% | % weed control, 14 day (Morning glory; [4]): 40.0% | % weed control, 21 day (Morning glory; [4]): 25.0% | % weed control, 28 day (Morning glory; [4]): 12.5% | % weed control, 7 day (Morning glory; [5]): 0.0% | % weed control, 14 day (Morning glory; [5]): 40.0% | % weed control, 21 day (Morning glory; [5]): 25.0% | % weed control, 28 day (Morning glory; [5]): 12.5% | % weed control, 7 day (Morning glory; [6]): 0.0% | % weed control, 14 day (Morning glory; [6]): 55.0% | % weed control, 21 day (Morning glory; [6]): 40.0% | % weed control, 28 day (Morning glory; [6]): 27.5% | % weed control, 7 day (Morning glory; [7]): 0.0% | % weed control, 14 day (Morning glory; [7]): 55.0% | % weed control, 21 day (Morning glory; [7]): 40.0% | % weed control, 28 day (Morning glory; [7]): 27.5%

Sodium lauryl ether sulfate
% weed control, 7 day (Alfalfa [2]; [8]): 67.5% | % weed control, 14 day (Alfalfa [2]; [8]): 83.8% | % weed control, 21 day (Alfalfa [2]; [8]): 73.8% | % weed control, 28 day (Alfalfa [2]; [8]): 75.0% | % weed control, 7 day (Alfalfa [2]; [9]): 67.5% | % weed control, 14 day (Alfalfa [2]; [9]): 82.5% | % weed control, 21 day (Alfalfa [2]; [9]): 72.5% | % weed control, 28 day (Alfalfa [2]; [9]): 67.5% | % weed control, 7 day (Alfalfa [2]; [10]): 72.5% | % weed control, 14 day (Alfalfa [2]; [10]): 86.3% | % weed control, 21 day (Alfalfa [2]; [10]): 86.3% | % weed control, 28 day (Alfalfa [2]; [10]): 87.5% | % weed control, 7 day (Alfalfa [2]; [11]): 75.0% | % weed control, 14 day (Alfalfa [2]; [11]): 85.0% | % weed control, 21 day (Alfalfa [2]; [11]): 82.5% | % weed control, 28 day (Alfalfa [2]; [11]): 83.8% | % weed control, 7 day (Alfalfa [3]; [12]): 72.5% | % weed control, 14 day (Alfalfa [3]; [12]): 81.3% | % weed control, 21 day (Alfalfa [3]; [12]): 71.3% | % weed control, 28 day (Alfalfa [3]; [12]): 70.0% | % weed control, 7 day (Alfalfa [3]; [13]): 65.0% | % weed control, 14 day (Alfalfa [3]; [13]): 80.0% | % weed control, 21 day (Alfalfa [3]; [13]): 67.5% | % weed control, 28 day (Alfalfa [3]; [13]): 70.0% | % weed control, 7 day (Alfalfa [3]; [14]): 72.5% | % weed control, 14 day (Alfalfa [3]; [14]): 82.5% | % weed control, 21 day (Alfalfa [3]; [14]): 76.3% | % weed control, 28 day (Alfalfa [3]; [14]): 76.3% | % weed control, 7 day (Alfalfa [3]; [15]): 67.5% | % weed control, 14 day (Alfalfa [3]; [15]): 82.5% | % weed control, 21 day (Alfalfa [3]; [15]): 75.0% | % weed control, 28 day (Alfalfa [3]; [15]): 75.0% | % weed control, 7 day (Morning glory; [4]): 85.0% | % weed control, 14 day (Morning glory; [4]): 75.0% | % weed control, 21 day (Morning glory; [4]): 55.0% | % weed control, 28 day (Morning glory; [4]): 55.0% | % weed control, 7 day (Morning glory; [5]): 87.5% | % weed control, 14 day (Morning glory; [5]): 90.0% | % weed control, 21 day (Morning glory; [5]): 87.5% | % weed control, 28 day (Morning glory; [5]): 77.5% | % weed control, 7 day (Morning glory; [6]): 92.5% | % weed control, 14 day (Morning glory; [6]): 95.8% | % weed control, 21 day (Morning glory; [6]): 95.8% | % weed control, 28 day (Morning glory; [6]): 96.5% | % weed control, 7 day (Morning glory; [7]): 90.0% | % weed control, 14 day (Morning glory; [7]): 88.8% | % weed control, 21 day (Morning glory; [7]): 91.3% | % weed control, 28 day (Morning glory; [7]): 89.5%

COc1c(Cl)ccc(Cl)c1C(=O)O [Dicamba]
% weed control, 7 day (Alfalfa [3]; [12]): 0.0% | % weed control, 14 day (Alfalfa [3]; [12]): 20.0% | % weed control, 21 day (Alfalfa [3]; [12]): 20.0% | % weed control, 28 day (Alfalfa [3]; [12]): 12.5% | % weed control, 7 day (Alfalfa [3]; [13]): 0.0% | % weed control, 14 day (Alfalfa [3]; [13]): 20.0% | % weed control, 21 day (Alfalfa [3]; [13]): 20.0% | % weed control, 28 day (Alfalfa [3]; [13]): 12.5% | % weed control, 7 day (Alfalfa [3]; [14]): 0.0% | % weed control, 14 day (Alfalfa [3]; [14]): 50.0% | % weed control, 21 day (Alfalfa [3]; [14]): 75.0% | % weed control, 28 day (Alfalfa [3]; [14]): 55.0% | % weed control, 7 day (Alfalfa [3]; [15]): 0.0% | % weed control, 14 day (Alfalfa [3]; [15]): 50.0% | % weed control, 21 day (Alfalfa [3]; [15]): 75.0% | % weed control, 28 day (Alfalfa [3]; [15]): 55.0%

CNC.O=C(O)COc1ccc(Cl)cc1Cl [2,4-D DMA]
% weed control, 7 day (Alfalfa [2]; [8]): 0.0% | % weed control, 14 day (Alfalfa [2]; [8]): 0.0% | % weed control, 21 day (Alfalfa [2]; [8]): 27.5% | % weed control, 28 day (Alfalfa [2]; [8]): 32.5% | % weed control, 7 day (Alfalfa [2]; [9]): 0.0% | % weed control, 14 day (Alfalfa [2]; [9]): 0.0% | % weed control, 21 day (Alfalfa [2]; [9]): 27.5% | % weed control, 28 day (Alfalfa [2]; [9]): 32.5% | % weed control, 7 day (Alfalfa [2]; [10]): 0.0% | % weed control, 14 day (Alfalfa [2]; [10]): 7.5% | % weed control, 21 day (Alfalfa [2]; [10]): 57.5% | % weed control, 28 day (Alfalfa [2]; [10]): 57.5% | % weed control, 7 day (Alfalfa [2]; [11]): 0.0% | % weed control, 14 day (Alfalfa [2]; [11]): 7.5% | % weed control, 21 day (Alfalfa [2]; [11]): 57.5% | % weed control, 28 day (Alfalfa [2]; [11]): 57.5%

Polyoxyethylene (20) sorbitan monolaurate
% weed control, 7 day (Alfalfa [2]; [8]): 67.5% | % weed control, 14 day (Alfalfa [2]; [8]): 83.8% | % weed control, 21 day (Alfalfa [2]; [8]): 70.0% | % weed control, 28 day (Alfalfa [2]; [8]): 72.5% | % weed control, 7 day (Alfalfa [2]; [9]): 67.5% | % weed control, 14 day (Alfalfa [2]; [9]): 81.3% | % weed control, 21 day (Alfalfa [2]; [9]): 67.5% | % weed control, 28 day (Alfalfa [2]; [9]): 72.5% | % weed control, 7 day (Alfalfa [2]; [10]): 72.5% | % weed control, 14 day (Alfalfa [2]; [10]): 86.3% | % weed control, 21 day (Alfalfa [2]; [10]): 80.0% | % weed control, 28 day (Alfalfa [2]; [10]): 85.0% | % weed control, 7 day (Alfalfa [2]; [11]): 72.5% | % weed control, 14 day (Alfalfa [2]; [11]): 82.5% | % weed control, 21 day (Alfalfa [2]; [11]): 76.3% | % weed control, 28 day (Alfalfa [2]; [11]): 81.3% | % weed control, 7 day (Alfalfa [3]; [12]): 62.5% | % weed control, 14 day (Alfalfa [3]; [12]): 73.8% | % weed control, 21 day (Alfalfa [3]; [12]): 50.0% | % weed control, 28 day (Alfalfa [3]; [12]): 62.5% | % weed control, 7 day (Alfalfa [3]; [13]): 60.0% | % weed control, 14 day (Alfalfa [3]; [13]): 70.0% | % weed control, 21 day (Alfalfa [3]; [13]): 50.0% | % weed control, 28 day (Alfalfa [3]; [13]): 50.0% | % weed control, 7 day (Alfalfa [3]; [14]): 77.5% | % weed control, 14 day (Alfalfa [3]; [14]): 87.5% | % weed control, 21 day (Alfalfa [3]; [14]): 76.3% | % weed control, 28 day (Alfalfa [3]; [14]): 81.3% | % weed control, 7 day (Alfalfa [3]; [15]): 70.0% | % weed control, 14 day (Alfalfa [3]; [15]): 83.8% | % weed control, 21 day (Alfalfa [3]; [15]): 75.0% | % weed control, 28 day (Alfalfa [3]; [15]): 78.8% | % weed control, 7 day (Morning glory; [4]): 85.0% | % weed control, 14 day (Morning glory; [4]): 80.0% | % weed control, 21 day (Morning glory; [4]): 58.8% | % weed control, 28 day (Morning glory; [4]): 56.3% | % weed control, 7 day (Morning glory; [5]): 91.3% | % weed control, 14 day (Morning glory; [5]): 92.0% | % weed control, 21 day (Morning glory; [5]): 85.0% | % weed control, 28 day (Morning glory; [5]): 82.5% | % weed control, 7 day (Morning glory; [6]): 91.3% | % weed control, 14 day (Morning glory; [6]): 91.3% | % weed control, 21 day (Morning glory; [6]): 82.5% | % weed control, 28 day (Morning glory; [6]): 81.3% | % weed control, 7 day (Morning glory; [7]): 91.3% | % weed control, 14 day (Morning glory; [7]): 93.8% | % weed control, 21 day (Morning glory; [7]): 94.5% | % weed control, 28 day (Morning glory; [7]): 95.8%
